{"source": "paper PMC6873218", "about": "“Functional Expression of Multidrug Resistance Protein 4 MRP4/ABCC4” (Slas Discovery, 2019)", "target": "T1, Multidrug resistance protein 4 (MRP4/ABCC4) (Homo sapiens, UniProt O15439)", "T1 construct": "recombinant human MRP4-his6 in Sf9 membrane vesicles", "T1 sequence (O15439 1-1325)": "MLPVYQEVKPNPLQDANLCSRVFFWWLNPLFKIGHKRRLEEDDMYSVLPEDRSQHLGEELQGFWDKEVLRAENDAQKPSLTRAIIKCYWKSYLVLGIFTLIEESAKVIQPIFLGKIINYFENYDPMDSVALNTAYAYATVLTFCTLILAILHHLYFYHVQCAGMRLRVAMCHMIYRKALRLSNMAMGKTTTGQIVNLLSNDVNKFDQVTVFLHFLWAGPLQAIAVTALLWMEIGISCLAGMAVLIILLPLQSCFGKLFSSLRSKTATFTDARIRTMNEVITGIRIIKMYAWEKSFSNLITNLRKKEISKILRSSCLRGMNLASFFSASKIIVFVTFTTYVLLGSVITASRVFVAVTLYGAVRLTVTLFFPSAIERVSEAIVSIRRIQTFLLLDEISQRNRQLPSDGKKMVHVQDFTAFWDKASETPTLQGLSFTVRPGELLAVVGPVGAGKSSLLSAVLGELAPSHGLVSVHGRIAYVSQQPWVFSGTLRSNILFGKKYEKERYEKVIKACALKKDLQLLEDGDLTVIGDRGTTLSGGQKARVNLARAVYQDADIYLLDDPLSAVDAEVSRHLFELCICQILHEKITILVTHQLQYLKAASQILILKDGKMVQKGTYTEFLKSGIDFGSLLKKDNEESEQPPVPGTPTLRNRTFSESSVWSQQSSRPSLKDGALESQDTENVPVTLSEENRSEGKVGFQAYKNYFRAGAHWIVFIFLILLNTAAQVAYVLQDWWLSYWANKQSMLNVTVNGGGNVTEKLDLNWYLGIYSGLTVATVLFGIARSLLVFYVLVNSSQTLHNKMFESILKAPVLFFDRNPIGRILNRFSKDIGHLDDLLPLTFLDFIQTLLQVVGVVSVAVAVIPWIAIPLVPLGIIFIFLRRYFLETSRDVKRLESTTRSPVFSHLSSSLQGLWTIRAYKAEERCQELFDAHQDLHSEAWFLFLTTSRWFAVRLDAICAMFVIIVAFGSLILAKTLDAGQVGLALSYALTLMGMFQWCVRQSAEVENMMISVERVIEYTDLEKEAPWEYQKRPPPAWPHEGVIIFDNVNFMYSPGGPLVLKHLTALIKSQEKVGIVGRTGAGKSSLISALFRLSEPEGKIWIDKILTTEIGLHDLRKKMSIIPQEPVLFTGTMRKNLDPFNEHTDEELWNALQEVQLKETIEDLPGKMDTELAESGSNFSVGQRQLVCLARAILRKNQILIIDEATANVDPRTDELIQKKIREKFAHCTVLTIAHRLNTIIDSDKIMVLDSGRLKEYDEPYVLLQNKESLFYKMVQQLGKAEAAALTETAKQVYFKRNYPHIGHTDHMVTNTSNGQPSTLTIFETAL", "assay": "fluorescent vesicular transport assay, ATP-dependent uptake in Sf9 MRP4 membrane vesicles against control vesicles (Km)", "format": "biochemical"}
{"substance": "8-(2-[fluoresceinyl]aminoethylthio)adenosine-3′,5′-cyclic monophosphate [fluo-cAMP]", "values": [{"measurement": "Km", "value": 5.8, "unit": "µM"}]}
